Measurements as given in PMC5622107, “Small molecule inhibition of cGAS reduces interferon expression in primary macrophages from autoimmune mice” (Nature Communications, 2017).

How the values were obtained:
apo-cGAS = target: T1, apo-cGAS (Mus musculus, UniProt Q8C6L5); test: Isothermal titration calorimetry, cGAS in absence of dsDNA; type: binding
T1 construct: full-length (for high-throughput screening) and residues 147–507 (for structural study) of cGAS; His6-SUMO (N, cleaved yes); made in house; host or cells: E. coli BL21(DE3) RIL
Experimental: ITC measurements were performed at 25 °C using a MicroCal auto-iTC200 calorimeter (MicroCal, LLC). Purified truncated mouse cGAS was dialyzed against 40 mM HEPES buffer (pH 7.5) and 300 mM NaCl for 24 h at 4 °C. Dialysis led to some precipitation, which were removed through centrifugation followed by collection of the supernatant. The concentration of the protein in supernatant was measured using Pierce® BCA protein assay. The protein was flash frozen in liquid N2 and stored at −80 °C. For the ITC assay, the dialyzed protein was prediluted to 20 µM in the dialysis buffer and diluted to a final concentration of 10 µM in a final buffer containing 40 mM HEPES, 1% DMSO, 150 mM NaCl, 0.01% Tween-20 and + /− dsDNA 10 µM and + /− ATP or GTP 1 mM. Then, 2 μl RU.365 100 µM, dissolved in the buffer aforementioned, were injected into 0.2 ml of protein in the chamber every 150 s. Data for raw ITC and thermodynamic curves, each from one experiment, were downloaded after analysis using Affinimeter software and plotted using GraphPad Prism (7.01). The software calculates error bars as an indication of the contribution of the raw data noise that is determined from the integral of the standard deviation of the baseline during the injection.

m-cGAS = target: T2, m-cGAS (Mus musculus, UniProt Q8C6L5); test: Kinetics of m-cGAS in the presence of RU.365 (RF-MS); type: biochemical
T2 construct: recombinant full-length mouse cGAS in reaction buffer; His6-SUMO (N, cleaved yes); made in house; host or cells: E. coli BL21(DE3) RIL
Experimental: Kinetics parameters of cGAMP formation were determined in the reaction mixtures carried out in 20 μl volumes in 384 small volume deep well polypropylene plates. The final concentration of m-cGAS enzyme and dsDNA were 60 nM and 300 nM, respectively. To determine if RU.365 was competitive against ATP and/or GTP, different concentrations of RU.365 ranging from 0.8 µM to 6.3 µM were tested, keeping one substrate fixed at 300 µM while varying the other one. Apparent K m ^app and apparent V max ^app values were also calculated in the presence and absence of the small molecule. RU.365 was diluted by half in DMSO for a total of four dilutions where the highest final concentration in the assay was 6.3 μM. Ten microliters of reaction buffer composed of 20 mM Tris-HCl pH 7.4, 150 mM NaCl, 5 mM MgCl2, and 0.01% Tween-20 were dispensed per well using a Thermo Multidrop Combi dispenser (Thermo Scientific). The liquid was collected at the well bottom by centrifugation for 30 s at 180×g. In all, 0.1 μl of RU.365 serially diluted in DMSO were dispensed with a Janus 384 MDT NanoHead (PerkinElmer).
Each reaction containing a variable substrate concentration was performed in a different plate. A separate column containing different amounts of cGAMP was also included in each plate in order to construct the calibration curve and calculate the µmoles of product formed. Twenty different master mix solutions were prepared in reaction buffer supplemented with 2 mM DTT and 1.2 µM dsDNA. Of these, Ten master mix solutions were prepared with different concentrations of GTP ranging from 2.36 µM to 1.2 mM while keeping the concentration of ATP fixed at 1.2 mM and vice versa for the other 10 master mix solutions. Five microliters of these solutions with variable substrate concentration were added for each reaction. Finally, the reaction was started by adding 5 μl of 0.24 μM recombinant full-length mouse cGAS in reaction buffer supplemented with 2 mM DTT to each well of the plate followed by centrifugation for 30 s at 180×g and incubation for 120 min at room temperature. The reaction was stopped by addition of 60 μl of 0.5% (v/v) formic acid per well. The plates were centrifuged for 30 s at 180×g and sealed with a Velocity11 PlateLoc thermal plate sealer. To calculate IC50 log (inhibitor) vs. response, a variable slope non-linear fit from GraphPad Prism (7.01) was used, using three replicate experiments; error bars represent SD. The kinetics parameters were obtained fitting the curves to an allosteric sigmoidal nonlinear fit using the same software.

[1] = varying ATP, GTP fixed, RU.365 0.8 µM
[2] = varying ATP, GTP fixed, RU.365 1.6 µM
[3] = varying ATP, GTP fixed, RU.365 3.2 µM
[4] = varying ATP, GTP fixed, RU.365 6.3 µM
[5] = varying GTP, ATP fixed, RU.365 0.8 µM
[6] = varying GTP, ATP fixed, RU.365 1.6 µM
[7] = varying GTP, ATP fixed, RU.365 3.2 µM
[8] = varying GTP, ATP fixed, RU.365 6.3 µM

T2 sequence (Q8C6L5 whole entry): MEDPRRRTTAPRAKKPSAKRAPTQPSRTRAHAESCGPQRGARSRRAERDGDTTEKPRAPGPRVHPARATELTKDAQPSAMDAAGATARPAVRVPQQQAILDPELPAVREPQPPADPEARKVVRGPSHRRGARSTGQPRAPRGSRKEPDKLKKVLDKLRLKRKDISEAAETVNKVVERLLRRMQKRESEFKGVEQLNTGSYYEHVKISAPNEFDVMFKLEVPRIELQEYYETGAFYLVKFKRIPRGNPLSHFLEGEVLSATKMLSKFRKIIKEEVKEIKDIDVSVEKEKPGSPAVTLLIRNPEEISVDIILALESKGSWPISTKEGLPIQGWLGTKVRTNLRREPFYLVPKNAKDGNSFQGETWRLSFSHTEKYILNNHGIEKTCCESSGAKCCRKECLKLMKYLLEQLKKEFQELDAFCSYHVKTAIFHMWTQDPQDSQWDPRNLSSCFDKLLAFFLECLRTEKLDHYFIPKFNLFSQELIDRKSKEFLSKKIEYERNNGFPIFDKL
T1 sequence (Q8C6L5 147-507): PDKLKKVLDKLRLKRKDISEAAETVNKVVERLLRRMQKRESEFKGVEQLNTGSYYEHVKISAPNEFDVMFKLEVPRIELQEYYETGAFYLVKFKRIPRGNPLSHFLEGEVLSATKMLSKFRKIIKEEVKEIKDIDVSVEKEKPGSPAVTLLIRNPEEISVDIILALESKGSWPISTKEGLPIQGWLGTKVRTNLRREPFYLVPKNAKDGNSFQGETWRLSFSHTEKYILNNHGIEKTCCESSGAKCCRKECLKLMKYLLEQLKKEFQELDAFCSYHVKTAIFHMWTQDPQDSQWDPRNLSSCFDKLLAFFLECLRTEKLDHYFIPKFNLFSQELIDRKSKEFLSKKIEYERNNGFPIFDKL

For `Cc1nn(-c2nc3ccccc3[nH]2)c(O)c1C1OC(=O)c2ccccc21` (stereo not shown) [RU166365], the Kd (apo-cGAS) was 98.5 nM, the “T*ΔS” value (apo-cGAS) was -1.511 kcal/mol and the rM (apo-cGAS) was 0.9384. The ΔG (apo-cGAS) was -9.559 kcal/mol, the ΔH (apo-cGAS) was -11.07 kcal/mol and the “mechanism of inhibition against ATP or GTP” value (m-cGAS) was “non-competitive inhibitor”. It also gave a Kmapp (m-cGAS; [1]) of 109.1 µM, a kcat (m-cGAS; [1]) of 0.283 s⁻¹ and a Kmapp (m-cGAS; [2]) of 115.5 µM. It also gave a kcat (m-cGAS; [2]) of 0.233 s⁻¹, a Kmapp (m-cGAS; [3]) of 113.4 µM and a kcat (m-cGAS; [3]) of 0.152 s⁻¹. For the same molecule, the Kmapp (m-cGAS; [4]) was 107.3 µM, the kcat (m-cGAS; [4]) was 0.0717 s⁻¹ and the Kmapp (m-cGAS; [5]) was 77.8 µM. For the same molecule, the kcat (m-cGAS; [5]) was 0.283 s⁻¹, the Kmapp (m-cGAS; [6]) was 89.7 µM and the kcat (m-cGAS; [6]) was 0.233 s⁻¹. The Kmapp (m-cGAS; [7]) was 79.7 µM, the kcat (m-cGAS; [7]) was 0.152 s⁻¹ and the Kmapp (m-cGAS; [8]) was 89.4 µM. It also gave a kcat (m-cGAS; [8]) of 0.0717 s⁻¹.
